Legend:
[1] = test system: NHLF cells; assay: q-RT-PCR gene expression in TGF-β1 stimulated NHLF cells; type: cell-based, human
Procedure: (§1) LL29 cells (lung fibroblasts from IPF patient) were purchased from ATCC and cultured in Ham's F-12K medium supplemented with 15% FBS. Primary lung fibroblasts cells, NHLF and DHLF-IPF cells were purchased from LONZA and cultured in FGF-2 medium with FGF, Insulin and FBS. All the cells were maintained in a humidified atmosphere of 95% air with 5% CO2 at 37° C.
(§2) Cells were pre-treated with HDAC-inhibitors (COMPOUND-109, COMPOUND-108 and COMPOUND-107) for 2 hours in serum free media and then human recombinant TGF-β (R&D Systems, Minneapolis, MN) was added at a concentration of 5 ng/mL and cultured for 72 hours for all the experiments.
(§3) RNA isolation was carried out using Trizol as described^12,13. RNA was isolated using Trizol-chloroform method and total RNA was quantified using nano-drop, 1 μg of RNA was used for cDNA synthesis using primescript cDNA synthesis kit (Takara bio) according to manufacturer's instructions. Primers for EMT (Fibronectin1 (FN1), Vimentin, α-SMA and Snail) markers, ECM markers (Timp1, Timp3 and LoxL2), Collagen markers (Collagen 1α1 (Col1) and Collagen 3α1[…] and housekeeping markers (β2M and β-actin) were designed using Primer 3 software and all primer sequences were listed in Table 1. Real time quantitative PCR (qRT-PCR) was carried out using SYBR green master mix and the differences in mRNA expression of all the gene levels were calculated as the fold change using the formula 2-ΔΔct. In all Q-RT-PCR data plots, vehicle control fold change was normalized to 1.

[2] = test system: LL29 cells; assay: q-RT-PCR gene expression in TGF-β1 stimulated LL29 cells; type: cell-based, human
Procedure: as §1, §2, §3

[3] = test system: NHLF, DHLF and LL29 cells; assay: q-RT-PCR gene expression in TGF-β1 stimulated cells, statements not split by cell line; type: cell-based, human; settings: for HDAC-8 levels (gene expression): TGF-β1 stimulated, other concentrations
Procedure: as §1, §2, §3

[4] = test system: BLM-induced pulmonary fibrosis; assay: Bleomycin (BLM) induced pulmonary fibrosis model; type: in vivo, Wistar rats; settings: for ALP levels / LDH levels: BALF, oral, daily for 14 days; for BLM induced thickened alveolar walls, inflammatory cells infiltration, deposition of collagen fibers (histopathology): H&E (Fibrosis score) and Masson's staining (Ashcroft score), compared BLM alone group; for BLM-induced inflammation, fibrotic marker expression and pathological changes in lung tissues: collective in-vivo conclusion
Procedure: as §3
Adult female Wistar rats (180-200 g, n=50) at the age of 8-10 weeks were used to develop bleomycin induced pulmonary fibrosis model. All animals were kept under constant environmental and nutritional conditions throughout the experimental period. The research protocol complies with the ethical guidelines of experimental research; “Institutional Animal Ethics Committee” (CPSCEA Registration No. 97/GO/RBi/S/1999/CPCSEA and study approval No. IICT/056/2019), CSIR-IICT, Hyderabad.
Except 8 animals (Sham control), pulmonary fibrosis was induced in remaining all animals (32 Wistar rats) by intratracheal instillation of BLM (5 mg/kg) as sulfate salt dissolved in 1 mL of normal saline. Rats were anesthetized using ketamine and xylazine (80 mg/kg and 15 mg/kg respectively as per body weight, I.P.). BLM was administered intratracheally into the lungs of the rats.
Pulmonary fibrosis was induced by a single intratracheal instillation of BLM (5 mg/kg) to the set of animals (n=40) excluding sham control animals (n=8)^14. BLM was dissolved in saline to attain the concentration of 5 mg/ml. Animals were anesthetized with ketamine (80 mg/kg) and xylazine (10 mg/kg). BLM was administered intratracheal (5 mg/kg) to the anesthetized Wistar rats and saline was administered intratracheally in to sham control animals. […] Further, these animals were randomized into four groups (as described in Table-2) apart from sham control (8 rats/group).
As described in the grouping pattern Table 2 and 3, animals were grouped and administered the compounds orally in the form of gum-acacia suspension (0.25%) daily for 14 days. Sham control (without bleomycin) animals were used as a control for bleomycin control (disease control) and administered everyday 0.5 mL of saline for 14 days orally. After the treatment period, BALF fluid was collected from 4 animals in each group and lungs were collected from another 4 animals for ex-vivo experiments and histopathological observations.
(§4) In 4 animals from each group, the thoracic cavity was opened and the tracheas were exposed, cannulated and 3 mL sterile 0.9% saline was slowly infused into the lungs. BALF was centrifuged at 2000 rpm, 4 ° C. for 10 min using cooling centrifuge. The sedimented cell pellets were pooled and re-suspended in 500 μl of sterile saline to quantify inflammatory cell counts; supernatant BLAF was examined for ALP and LDH parameters using auto-analyzer.
Collagen deposition was determined by measuring the total hydroxyproline content in wet lung tissue, which was measured by a hydroxyproline assay kit (abcam), according to the manufacturer's protocol. In brief, lungs were homogenized in sterile distilled water, alkalized using 10N NaOH and heated at 120° C. for 1 hour. Following alkaline hydrolysis samples were neutralized using 10N concentrated HCL. Then samples were into 96 well plate along with standards and kept for evaporation at 65° C. Then samples were oxidized by adding oxidation mixture followed by addition of developer and incubated at 37° C. for 5 min. […]

[5] = test system: LPS induced ARDS; assay: LPS induced ARDS model; type: in vivo, SD rats
Procedure: as §3
Treatment group animals were treated with HDACi (COMPOUND-108) for 7 days at the doses of (1.5 mg/kg and 3 mg/kg), after the treatment period animals were subjected to ARDS instillation by intratracheally. Rats were anesthetized using ketamine and xylazine (80 mg/kg and 20 mg/kg, respectively as per body weight, I.P.). Except 8 animals (Sham control), ARDS was induced in remaining all animals (24 SD rats) by intratracheal instillation of Lipopolysachharide (5 mg/kg) dissolved in normal saline.
as §4
A portion of the pulmonary lobe was harvested, rinsed with ice-cold phosphate buffer saline, and fixed with 10% neutral-buffered formalin, embedded in paraffin wax, sectioned (6 μm) and stained with H&E and Masson's trichrome. Three serial slices of 3 μm thickness each 50 μm apart of both lung lobes were stained with Masson's Trichrome. The slides were analyzed with a microscope in a random order using an (10×) objective. The severity of fibrosis and alveolitis in lung tissues (using H&E and Masson's trichrome staining) was semi-quantitatively assessed by a pathologist in a blinded fashion via Ashcroft scoring system^15. The structural alterations of tissue were assessed based on the degree haemorrhage, emphysema, alveolar wall thickening, inflammatory lesions and collagen deposition or fibrosis^16.

SMILES: Cn1cc(-c2cc(O)cc(F)c2)c2cc(NS(=O)(=O)c3ccc(C(=O)NO)cc3)ccc21 [COMPOUND-107, 4-(N-(3-(3-fluoro-5-hydroxyphenyl)-1-methyl-1H-indol-5-yl)sulfamoyl)-N-hydroxyl benzamide]
- vimentin levels [1]: highly reduced
- α-SMA levels [1]: highly reduced
- vimentin levels [2]: highly reduced
- α-SMA levels [2]: highly reduced
- Snail levels ([2]; 10 and 20 μM): highly down-regulated
- HDAC-8 levels (gene expression) [3]: did not modulate
- HDAC-6 mRNA levels ([3]; summary of Example 2): could inhibit only HDAC-6 mRNA levels

SMILES: Cn1cc(-c2cccc(Cl)c2)c2cc(NS(=O)(=O)c3ccc(C(=O)NO)cc3)ccc21 [COMPOUND-108, 4-(N-(3-(3-chlorophenyl)-1-methyl-1H-indol-5-yl)sulfamoyl)-N-hydroxybenzamide]
- vimentin levels [1]: highly reduced
- α-SMA levels [1]: highly reduced
- HDAC-8 levels (gene expression) ([1]; 2.5 μM): reduced
- vimentin levels [2]: highly reduced
- α-SMA levels [2]: highly reduced
- HDAC-8 levels (gene expression) ([2]; 2.5 μM): reduced
- Snail levels ([2]; 5 and 10 μM): highly down-regulated
- HDAC-8 levels (gene expression) [3]: did not modulate
- HDAC-6 mRNA levels ([3]; summary of Example 2): potentially inhibits
- HDAC-8 mRNA levels ([3]; summary of Example 2): potentially inhibits
- ALP levels [4]: reduced in dose dependently
- LDH levels [4]: reduced in dose dependently
- BLM induced thickened alveolar walls, inflammatory cells infiltration, deposition of collagen fibers (histopathology) [4]: reduced
- BLM-induced inflammation, fibrotic marker expression and pathological changes in lung tissues [4]: could effectively protect
- fibrotic alterations in BLM challenged rat lung tissues ([4]; statement in embodiment): most effectively ameliorated
- lung injury and infiltration of inflammatory cells (histopathology) ([5]; 1.5 mg/kg): significant (p<0.01) reduction
- LPS induced Neutrophil count in blood ([5]; 3 mg/kg): significantly attenuated
- lung injury and infiltration of inflammatory cells (histopathology) ([5]; 3 mg/kg): significant (p<0.01) reduction
- plasma IL-6 Levels ([5]; 3 mg/kg, at both the time points): reduced
- LPS induced infiltration of Neutrophils ([5]; BALF): significantly attenuated
- LPS induced infiltration of WBC ([5]; BALF): significantly attenuated
- LPS induced expression of inflammatory markers (IL-6, IL-1β, CCl2, Cox-2, CXCL-6, CCL-7, CXCL-1, CXCL-10) ([5]; lung tissues, mRNA, dose dependent manner): significantly attenuated
- LPS induced inflammatory marker's expression (CXCL-11, TLR-3 and INF-γ) ([5]; lung tissues, mRNA, in dose dependent manner): significantly attenuated
- pathological consequences (LPS induced), H&E ([5]; pre-treatment at 1.5 and 3 mg/kg doses): remarkably repressed
- LPS induced Lung volume (index) ([5]; rat, in vivo): significantly attenuated
- LPS induced spleen Indices ([5]; rat, in vivo): significantly attenuated
- lung pathological conditions ([5]; statement in embodiment): most effectively ameliorated

SMILES: CCOc1ccc(-c2cn(C)c3ccc(NS(=O)(=O)c4ccc(C(=O)NO)cc4)cc23)cn1 [COMPOUND-109, 4-(N-(3-(6-ethoxypyridin-3-yl)-1-methyl-1H-indol-5-yl)sulfamoyl)-N-hydroxy benzamide]
- vimentin levels [1]: not modulated
- α-SMA levels [1]: highly reduced
- vimentin levels [2]: not modulated
- α-SMA levels [2]: highly reduced
- HDAC-8 levels (gene expression) [3]: did not modulate
- HDAC-6 mRNA levels ([3]; summary of Example 2): could inhibit only HDAC-6 mRNA levels
- ALP levels [4]: reduced in dose dependently
- LDH levels [4]: reduced in dose dependently
- BLM induced thickened alveolar walls, inflammatory cells infiltration, deposition of collagen fibers (histopathology) [4]: reduced
- BLM-induced inflammation, fibrotic marker expression and pathological changes in lung tissues [4]: could effectively protect
